Usually IC50 stands for the midpoint of a concentration-inhibition curve. Usually inhibition stands for the drop in the measured response relative to a control, in per cent. A high value points to strong suppression.

One assay deals with 20S proteasome. As to the kind of experiment: Inhibition of human 20S proteasome chymotrypsin-like activity using Suc-LLVY-Glo as a […] substrate measured after 10 mins by luminescence based analysis. In kind it is protein-complex assay.
The test system of the next assay is RPMI-8226. As to the kind of experiment: Antiproliferative activity against human RPMI-8226 cells assessed as inhibition of cell growth measured after 72 hrs by MTS method. The format is functional, cell-based. Particulars: RPMI-8226, 72 h. For orientation: Formazan colour is commonly taken as a measure of viable cells.
A further assay relates to A-375. As to the kind of experiment: Antiproliferative activity against human A-375 cells assessed as inhibition of cell growth measured after 48 hrs by cell titer-blue cell viability assay. In kind it is functional, cell-based. Particulars: A-375, 48 h.
In assay [1] the target is T1, Proteasome Macropain subunit MB1 (Homo sapiens, UniProt P28074).
T1 sequence (P28074 whole entry): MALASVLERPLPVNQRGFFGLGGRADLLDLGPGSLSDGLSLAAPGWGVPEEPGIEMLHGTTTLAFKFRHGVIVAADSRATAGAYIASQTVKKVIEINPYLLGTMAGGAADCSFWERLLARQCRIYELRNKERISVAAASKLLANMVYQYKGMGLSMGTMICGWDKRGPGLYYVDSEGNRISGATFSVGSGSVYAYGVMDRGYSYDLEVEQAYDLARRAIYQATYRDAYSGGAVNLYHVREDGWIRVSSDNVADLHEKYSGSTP
Nature of the assay: Inhibition of human 20S proteosome beta5c subunit using Ac-WLA-AMC as substrate by microplate reader analysis.

Assay [2] has as its target T2, Protein deacetylase HDAC6 (Homo sapiens) (UniProt Q9UBN7).
T2 sequence (whole entry): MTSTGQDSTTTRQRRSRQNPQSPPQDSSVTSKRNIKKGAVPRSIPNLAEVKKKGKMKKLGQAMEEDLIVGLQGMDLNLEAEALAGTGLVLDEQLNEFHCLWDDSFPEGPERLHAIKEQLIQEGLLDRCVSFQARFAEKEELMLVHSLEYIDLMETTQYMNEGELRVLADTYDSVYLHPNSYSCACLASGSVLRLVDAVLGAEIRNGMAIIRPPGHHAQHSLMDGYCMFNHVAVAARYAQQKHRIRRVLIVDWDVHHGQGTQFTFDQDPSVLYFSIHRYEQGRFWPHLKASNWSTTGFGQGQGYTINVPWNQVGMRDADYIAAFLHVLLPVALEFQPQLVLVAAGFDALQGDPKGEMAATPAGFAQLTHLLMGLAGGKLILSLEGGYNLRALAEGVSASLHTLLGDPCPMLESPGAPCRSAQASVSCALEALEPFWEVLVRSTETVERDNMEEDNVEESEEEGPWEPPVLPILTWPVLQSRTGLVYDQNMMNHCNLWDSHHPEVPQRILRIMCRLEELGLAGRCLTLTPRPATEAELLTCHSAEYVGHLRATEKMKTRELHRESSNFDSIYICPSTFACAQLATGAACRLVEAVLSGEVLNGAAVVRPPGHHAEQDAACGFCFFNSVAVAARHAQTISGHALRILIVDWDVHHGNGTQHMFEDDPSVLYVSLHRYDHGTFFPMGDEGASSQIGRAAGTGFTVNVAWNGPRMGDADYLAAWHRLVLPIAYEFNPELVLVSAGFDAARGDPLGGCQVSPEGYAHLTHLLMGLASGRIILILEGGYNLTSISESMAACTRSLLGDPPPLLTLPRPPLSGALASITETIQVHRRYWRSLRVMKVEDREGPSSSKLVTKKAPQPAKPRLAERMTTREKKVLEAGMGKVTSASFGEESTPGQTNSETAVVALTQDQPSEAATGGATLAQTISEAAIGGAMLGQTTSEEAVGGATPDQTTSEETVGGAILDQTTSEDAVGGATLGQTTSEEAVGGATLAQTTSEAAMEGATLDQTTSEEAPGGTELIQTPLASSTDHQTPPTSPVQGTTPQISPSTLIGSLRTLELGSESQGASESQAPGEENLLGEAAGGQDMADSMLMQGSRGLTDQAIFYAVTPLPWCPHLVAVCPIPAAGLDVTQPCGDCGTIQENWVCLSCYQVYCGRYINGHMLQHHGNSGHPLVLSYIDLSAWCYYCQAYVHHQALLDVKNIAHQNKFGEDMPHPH
Nature of the assay: Inhibition of HDAC6 (unknown origin) at 1 uM incubated for 1 hr by fluorescence based microplate reader analysis relative to control.

Assay [3] concerns the target Histone deacetylase 1 (Homo sapiens) (UniProt Q13547). Nature of the assay: Inhibition of HDAC1 (unknown origin) at 1 uM incubated for 1 hr by fluorescence based microplate reader analysis relative to control.

Molecules are shown by their SMILES.

Chain of Histone deacetylase 1 (Homo sapiens) (Q13547 whole entry): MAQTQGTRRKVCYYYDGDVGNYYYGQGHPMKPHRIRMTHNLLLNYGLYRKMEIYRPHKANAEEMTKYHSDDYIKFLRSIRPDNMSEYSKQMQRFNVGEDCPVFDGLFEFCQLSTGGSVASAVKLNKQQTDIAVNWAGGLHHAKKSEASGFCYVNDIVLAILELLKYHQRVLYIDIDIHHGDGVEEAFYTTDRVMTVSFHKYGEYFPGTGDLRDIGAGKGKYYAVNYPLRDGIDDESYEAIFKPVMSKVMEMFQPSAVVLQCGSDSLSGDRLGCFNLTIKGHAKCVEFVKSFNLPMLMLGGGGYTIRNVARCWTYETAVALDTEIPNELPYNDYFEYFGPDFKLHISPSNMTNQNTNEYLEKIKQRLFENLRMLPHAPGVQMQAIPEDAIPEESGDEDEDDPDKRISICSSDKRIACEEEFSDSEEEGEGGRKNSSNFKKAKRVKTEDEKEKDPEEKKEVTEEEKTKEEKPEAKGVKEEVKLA

Take `C[C@H](NC(=O)[C@H](CC(=O)NCC(C)(C)C)NC(=O)CCC(=O)Nc1ccc(C(=O)NO)cc1)C(=O)NCc1ccc(F)cc1F`: the 50% inhibitory concentration (IC50) on 20S proteasome is greater than 30 µM; in the assay with RPMI-8226, greater than 50 µM; with A-375, greater than 50 µM.
For `C[C@H](NC(=O)[C@H](CC(=O)NCC(C)(C)C)NC(=O)c1c[nH]c2ccccc12)C(=O)NCc1ccc(F)cc1F`, the IC50 at 20S proteasome turned out to be 0.729 µM; in the assay with RPMI-8226, 11.5 µM; in assay [1] it was 0.0024 µM; with A-375, 8.87 µM.
Take `C[C@H](NC(=O)[C@H](CC(=O)NCC(C)(C)C)NC(=O)CCCCCCC(=O)NO)C(=O)NCc1ccc(F)cc1F`: the IC50 at 20S proteasome was greater than 30 µM; in the assay with RPMI-8226, greater than 50 µM.
On to `C[C@H](NC(=O)[C@H](CC(=O)NCC(C)(C)C)NC(=O)c1ccc(C(=O)NO)cc1)C(=O)NCc1ccc(F)cc1F`, for which the IC50 against 20S proteasome is greater than 30 µM; in the assay with RPMI-8226 it was greater than 50 µM.
On to `C[C@H](NC(=O)[C@H](CC(=O)NCC(C)(C)C)NC(=O)c1ccc(/C=C/C(=O)NO)cc1)C(=O)NCc1ccc(F)cc1F`, for which the IC50 was 0.199 µM on 20S proteasome, 7.03 µM in the assay on RPMI-8226 and 1.83 µM in the assay with A-375.
In the case of `C[C@H](NC(=O)[C@H](CC(=O)NCC(C)(C)C)NC(=O)c1ccc(C(=O)Nc2ccccc2N)cc1)C(=O)NCc1ccc(F)cc1F`, the inhibition in assay [2] is 13%; in assay [3] it was 65%. Moreover, the IC50 in the assay with RPMI-8226 and in the assay with A-375 was greater than 50 µM throughout.
